Entries after “also recorded” stand apart in the source; their conditions may differ. Where two headings read alike, the source gives them in different places.
Columns and labels:
[1] = test system: wound healing; conditions: supplementation of the diet, animals and humans; cited from earlier work
[2] = test system: wound healing; assay: Wound strength (abdominal bursting strength) in animals given carnosine or histidine following surgery; format: in vivo; conditions: supplement to a complete diet, mammals not nutritionally deprived
Text: Pursuant to the present invention, therapeutically effective amounts of carnosine are supplemented with a complete diet. […] Previous studies in this area have advocated that the wound healing effects can be achieved with histamine or histidine. […] Table 2 illustrates comparative results between carnosine and histidine administered to animals following surgery.

[3] = test system: gastric and duodenal ulcers; conditions: food deprived rats; cited from earlier work

N=C(N)NCCC[C@H](N)C(=O)O [arginine]
Effect on wound healing (in words) [1]: improves wound healing

NCCC(=O)N[C@@H](Cc1c[nH]cn1)C(=O)O [carnosine, β-alanyl-histidine]
Effect on wound healing (in words) [2]: improves wound healing; also recorded: more effective in stimulating wound healing than histidine treatment

N-acetyl-L-carnosine aluminum
Protection against ulcer formation (in words) [3]: protects against the formation of gastric and duodenal ulcers
